Entries after “also recorded” stand apart in the source; their conditions may differ.

One assay has as its system T-bet and Eomes. As to the kind of experiment: T-bet and Eomes expression by flow cytometry in DLN CD8+ T cells. Particulars: combined with PD-L1 antibody. In kind it is in vivo, mouse. On the procedure:
FIG. 15. […] Data represent the means±SEM of five mice. *p<0.05, **p<0.01, one-way ANOVA.
The following antibodies recognizing the indicated antigens were used: CD44 (1M7), CD45.2 (104), CD45.1 (A20), CD8 (53-6.7), CD62L (MEL-14), T-bet (4B/O) and IFN-7 (XMG1.2), MHC class I (AF6-88.5), CD155 (Tx56) and VISTA (MIH63) from BioLegend; p-AMPK (EPR5683) from Ancam; p-mTOR (MRRBY), Eomes (Danllmag) and PD-L1 (M1H5) from eBioscience. All flow cytometry experiments were performed on a FACS Canto II (BD Biosciences) and analyzed using FlowJo software (FLOWJO, LLC). For assessment of intracellular phosphoproteins, cells were permeabilized with 0.5% Triton-X and fixed with 1.5% PFA before staining. Determination of mitochondrial mass, membrane potential, mitochondrial superoxide and cellular ROS was performed using MitoTracker Green, Mito-Tracker Deep Red, MitoSOX Red, and CellROX Green reagents, respectively (all from Life Technologies). These dyes were added to cells to a final concentration of 0.125 μM, 0.125 μM, 5.0 μM and 0.625 μM, respectively, and incubated at 37° C. in a 5% CO2 humidified incubator for 30 min.

The subject of a further assay is MC38. In words: Mouse therapy model, MC38-bearing mice (tumor volume, survival). In kind it is in vivo. On the procedure:
(§1) MC38 (5×10^5) and MethA (5×10^5) cells were intradermally injected on the right flank. MC38 was inoculated into C57BL/6 mice and MethA was inoculated into BALB/c mice. For monotherapy, mice were intraperitoneally injected with 150 μg of PD-L1 mouse antibody (1-111A) (prepared by the laboratory of the present inventors) 5 days after the tumor inoculation. Therapy with PD-L1 antibody alone was repeated three times every 5 days. For combination therapy, administration of PD-L1 antibody and chemical agents started 7 days after tumor injection. Chemical agents were injected at a regular interval of 2 days and PD-L1 antibody at a regular interval of 5 days (shown in FIG. 3b). Tumors were measured on every alternate day, and tumor volumes were calculated using the formula for typical ellipsoid, π×(length×breadth×height/6).
(§2) The following chemical reagents were used at the indicated concentrations for combination therapy. AMPK activator: A769662, 6 mg/kg (Abcam); mTOR activator: MHY1485, 3 μg/kg (Sigma-Aldrich); uncoupler: carbonylcyanide-p-trifluoromethoxyphenylhydrazone (FCCP), 1.2 mg/kg (Abcam); uncoupler: 2,4-Dinitrophenol (DNP), 1.7 mg/kg (Aldrich); SIRT1 activator: resveratrol, 0.5 mg/kg (Abcam); ROS scavenger: Mn (III) tetrakis (4-benzoic acid) porphyrin (MnTBAP), 1.25 mg/kg (Calbiochem); ROS generator: tert-butyl hydroperoxide solution (Luperox TBH70X), 200 μL/kg (Sigma-Aldrich); ATP synthase inhibitor: oligomycin, 250 μg/kg (Sigma-Aldrich); paraquat 2 mg/kg (Nakalai Tesque); oltipraz 1.9 mg/kg (Sigma); bezafibrate 1 mg/kg (ChemCruz).
All reagents were freshly prepared just before use. Each reagent was dissolved in the solvent indicated in the instructions. Note that the AMPK activator, mTOR activator, uncouplers and SIRT1 activator were prepared from fresh unused vials in each series of experiments. Dissolved reagents were diluted in PBS, and a 200 l aliquot was injected per mouse.
Murine colon adenocarcinoma MC38 cells (5×10^5) were inoculated into C57BL/6 mice. After 7 days, anti-PD-L1 antibody (1-111A, 150 μg) and AMPK inhibitor (Compound C: 200 μg in BBS, 200 μL) were administered intraperitoneally. Anti-PD-L1 antibody was administered 3 times at a regular interval of 6 days; Compound C (C.C) was administered 7 times at a regular interval 2 days.
MC38 cells (5×10^5) were inoculated into C57BL/6 mice. After 7 days, anti-PD-L1 antibody (1-111A, 150 μg) and PGC-1α/transcription factor complex activator (2-(4-{2-[(4-chlorobenzoyl)amino]ethyl}phenoxy)-2-methylpropanoic acid (bezafibrate): 10 ug in PBS, 200 ul) were administered intraperitoneally. Anti-PD-L1 antibody was administered 3 times at a regular interval of 6 days; bezafibrate was administered 7 times at a regular interval 2 days.

Assay [1] concerns AMPK and its associated proteins ACC and SIRT1. In words: Western blotting of DLN CD8+ T cells, AMPK pathway. The note with it: CD8+ T cells from mice treated with PD-L1 antibody and reagent. In kind it is in vivo, mouse. On the procedure:
FIG. 7. […] Phosphorylation of AMPK, ACC, mTOR and S6K and the expression of SIRT1 and 4EBP1 were analyzed by Western blotting. b) MC38-bearing mice were treated with PD-L1 antibody in combination with AMPK activator (A769662) and/or mTOR activator (MHY1485) according to the same schedule as shown in FIG. 3b.
CD8^+ T cells were isolated using mouse CD8 Microbeads (Miltenyi Biotec). After washing with PBS twice, 2×10^6 cells were solubilized in a lysis buffer containing 30 mM Tris-HCl (pH.7.4), 150 mM NaCl, 10% glycerol, 0.1% SDS, 1% Triton-X-100, 0.05% Na-Doc, 5 mM EDTA (pH.8.0), protease inhibitor mixture (Roche Molecular Biochemicals) and phosphatase inhibitors (Nacalai Tesque). After measurement of protein concentrations by DC protein assay (Bio-Rad), 4 μg of proteins was mounted on 4 to 20% gradient Mini-PROTEAN TGX Gels (Bio-Rad) and electroblotted onto nitrocellulose membranes, which were then incubated in a blocking buffer of TBS containing 1% BSA. Primary antibody incubations were carried out overnight at 4° C. in blocking buffer. After washing, secondary antibody incubations were carried out at room temperature for 40 min in blocking buffer. Blots were developed with enhanced chemiluminescence (Amersham Pharmacia). […]

Another assay concerns MethA. In words: Mouse therapy model, MethA-transplanted BALB/c mice (tumor volume). In kind it is in vivo. The note with it: MethA in BALB/c mice; combined with PD-L1 antibody. The protocol: as §1, §2
MethA cells (5×10^5) were inoculated into BALB/c mice. After 7 days, anti-PD-L1 antibody (1-111A, 80 μg) and Foxo1 inhibitor (5-amino-7-(cyclohexylamino)-1-ethyl-6-fluoro-4-oxo-1,4-dihydroquinoline-3-carboxylic acid, Calbiochem) (2 mg/kg) were administered intraperitoneally.
Fibrosarcoma MethA (Cell Resource Center for Biomedical Research) cells (5×10^5) were inoculated into BALB/c mice. After 7 days, anti-PD-L1 antibody (1-111A, 60 μg) and Aminoleban (Otsuka Pharmaceutical, 400 μl/mouse) were administered.

As to `N#CC(C#N)=NNc1ccc(OC(F)(F)F)cc1` [FCCP, carbonyl cyanide p-trifluoromethoxyphenylhydrazone], in the assay on T-bet and Eomes, the Eomes expression entry is recorded as “not Eomes expression” and the T-bet expression entry is “increased T-bet expression; also recorded: up-regulated”. Also, the “antitumor effect when administered alone” value in the assay on MC38 (MC38-bearing mice, reagent alone, no PD-L1 antibody, tumor volume) is on record as “failed to exhibit any antitumor effect”. Also, the “enhancement of antitumor effect of PD-L1 antibody (tumor volume)” value in the assay on MC38 (MC38-bearing mice, reagent combined with PD-L1 antibody vs PD-L1 antibody alone) is “augmented the efficacy of PD-L1 antibody therapy; also recorded: enhance the antitumor effect of PD-L1 antibody”. Moreover, the survival rate entry with MC38 (mouse, in vivo) is “remarkably improved the survival rate”. Further, in assay [1], the “activation of AMPK and its associated proteins ACC and SIRT1” value is “activated”. Besides, the “enhancement of antitumor effect of PD-L1 antibody (tumor volume)” value in the assay on MethA is recorded as “enhanced the antitumor effect of PD-L1 antibody”.

These data come from patent US20230272077A1, “PD-1 SIGNAL INHIBITOR COMBINATION THERAPY” (KYOTO UNIVERSITY, priority 2015, published 2023).
